Experimental data taken from PubChem BioAssay AID248 (DTP/NCI, 2004).
Values joined by “and” are separate entries in the source; they are usually repeats but may differ in a detail not shown here. Equal entries are not always repeated. Toxic doses and inconclusive results are not listed. Cut-off read from the data, not from the text of the source: active = T/C of 150% or more; inactive = T/C below 125%.

Test system: L1210 leukemia ip in BDF1 mice, survival T/C
Test: NCI In Vivo Anticancer Drug Screen. Data for tumor model L1210 Leukemia (intraperitoneal) in B6D2F1 (BDF1) mice
Settings: endpoint: mean survival time, higher = longer survival
Outline: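 Value reflects the ratio of survival in compound-treated mice to survival in vehicle-treated controls, with both groups carrying the same transplanted tumor.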

[1] = dose: 100.0 mg/kg/injection, schedule: Q01DX001 (ip), vehicle: saline with Tween-80
[2] = dose: 100.0 mg/kg/injection, schedule: Q04DX002 (ip), vehicle: saline with Tween-80
[3] = dose: 200.0 mg/kg/injection, schedule: Q04DX002 (ip), vehicle: saline with Tween-80
[4] = dose: 400.0 mg/kg/injection, schedule: Q04DX002 (ip), vehicle: saline with Tween-80
[5] = dose: 100.0 mg/kg/injection, schedule: Q01DX009 (ip), vehicle: saline with Tween-80
[6] = dose: 200.0 mg/kg/injection, schedule: Q01DX009 (ip), vehicle: saline with Tween-80
[7] = dose: 100.0 mg/kg/injection, schedule: Q04DX003 (ip), vehicle: saline with Tween-80
[8] = dose: 200.0 mg/kg/injection, schedule: Q04DX003 (ip), vehicle: saline with Tween-80
[9] = dose: 400.0 mg/kg/injection, schedule: Q04DX003 (ip), vehicle: saline with Tween-80
[10] = dose: 50.0 mg/kg/injection, schedule: Q01DX009 (ip), vehicle: saline with Tween-80

Measured: T/C

CC1C[N+](C)=C(c2ccc(O)cc2)S1 (configuration not stated)
inactive: dose: 50.0 mg/kg/injection, schedule: Q01DX001 (ip), vehicle: saline with Tween-80 103 % of control | [1] 107 % of control

CCOCCOCCOC(C)Oc1cccc(C(=O)OCC)c1 (configuration not stated)
inactive: [2] 103 % of control | [3] 103 % of control | [4] 100 % of control

Cc1ccc(OCCOc2ccc(C)c(CC(Cl)(Cl)Cl)c2)cc1CC(Cl)(Cl)Cl
inactive: dose: 100.0 mg/kg/injection, schedule: Q01DX001 (ip), vehicle: DMSO 88 % of control | dose: 200.0 mg/kg/injection, schedule: Q01DX001 (ip), vehicle: DMSO 89 % of control | dose: 400.0 mg/kg/injection, schedule: Q01DX001 (ip), vehicle: DMSO 88 % of control

O=c1cc(-c2ccccc2)nc(SCc2ccccc2Cl)[nH]1
inactive: dose: 25.0 mg/kg/injection, schedule: Q01DX Z (ip), vehicle: methylcellulose (MC) 94 % of control

Cc1c(Cl)cccc1NS(=O)(=O)c1cccc([N+](=O)[O-])c1
inactive: [5] 90 % of control | [6] 87 % of control

CCOC(=O)C1=C(C)N(Cc2ccccc2)C(C)=C(C(=O)OCC)C1(C)C
inactive: [7] 101 % of control | [8] 98 % of control | [9] 106 % of control

CCOc1ccccc1/C=N\N=C(N/N=C/c1ccccc1OCC)N/N=C/c1ccccc1OCC
inactive: dose: 60.0 mg/kg/injection, schedule: Q01DX Z (oral), vehicle: saline 91 % of control | dose: 120.0 mg/kg/injection, schedule: Q01DX Z (oral), vehicle: saline 100 % of control | dose: 240.0 mg/kg/injection, schedule: Q01DX Z (oral), vehicle: saline 95 % of control | dose: 480.0 mg/kg/injection, schedule: Q01DX Z (oral), vehicle: saline 95 % of control

O=C(Nc1ccc(Cl)c([N+](=O)[O-])c1)Oc1ccccc1F
inactive: dose: 100.0 mg/kg/injection, schedule: Q01DX009 (ip), vehicle: Klucel (hydroxypropylcellulose) (HPC) 92 % of control | dose: 100.0 mg/kg/injection, schedule: Q04DX003 (ip), vehicle: Klucel (hydroxypropylcellulose) (HPC) 97 % of control | dose: 200.0 mg/kg/injection, schedule: Q01DX009 (ip), vehicle: Klucel (hydroxypropylcellulose) (HPC) 101 % of control | dose: 200.0 mg/kg/injection, schedule: Q04DX003 (ip), vehicle: Klucel (hydroxypropylcellulose) (HPC) 97 % of control | dose: 400.0 mg/kg/injection, schedule: Q04DX003 (ip), vehicle: Klucel (hydroxypropylcellulose) (HPC) 96 % of control

CN(C)Cc1ccnc(Cl)n1
inactive: dose: 2.0 mg/kg/injection, schedule: Q01DX Z (ip), vehicle: methylcellulose (MC) 93 % of control

CCN(CC)C(=O)Nc1cc2c3c(c1)CCCN3CCC2
inactive: dose: 50.0 mg/kg/injection, schedule: Q04DX002 (ip), vehicle: saline with Tween-80 96 % of control | [2] 93 % of control | [3] 90 % of control | [4] 114 % of control

Nc1nc(-c2cc(Br)ccc2N=NN2CCOCC2)nc2ccc(Br)cc12
inactive: dose: 100.0 mg/kg/injection, schedule: Q04DX002 (ip), vehicle: Klucel (hydroxypropylcellulose) (HPC) 105 % of control | dose: 200.0 mg/kg/injection, schedule: Q04DX002 (ip), vehicle: Klucel (hydroxypropylcellulose) (HPC) 96 % of control | dose: 400.0 mg/kg/injection, schedule: Q04DX002 (ip), vehicle: Klucel (hydroxypropylcellulose) (HPC) 89 % of control

COc1ccc(NC(C)=O)cc1OC
inactive: dose: 100.0 mg/kg/injection, schedule: Q04DX002 (ip), vehicle: saline 95 % of control | dose: 200.0 mg/kg/injection, schedule: Q04DX002 (ip), vehicle: saline 98 % of control | dose: 400.0 mg/kg/injection, schedule: Q04DX002 (ip), vehicle: saline 92 % of control

COc1ccc(NC(=O)Nc2ccc(Cl)cc2C)cc1
inactive: dose: 100.0 mg/kg/injection, schedule: Q01DX009 (sc), vehicle: olive oil, sesame oil, peanut oil 100 % of control | dose: 100.0 mg/kg/injection, schedule: Q04DX003 (sc), vehicle: olive oil, sesame oil, peanut oil 101 % of control | dose: 200.0 mg/kg/injection, schedule: Q01DX009 (sc), vehicle: olive oil, sesame oil, peanut oil 102 % of control | dose: 200.0 mg/kg/injection, schedule: Q04DX003 (sc), vehicle: olive oil, sesame oil, peanut oil 100 % of control | dose: 400.0 mg/kg/injection, schedule: Q01DX009 (sc), vehicle: olive oil, sesame oil, peanut oil 96 % of control | dose: 400.0 mg/kg/injection, schedule: Q04DX003 (sc), vehicle: olive oil, sesame oil, peanut oil 98 % of control

CCOC(=O)c1c(NC(=O)C(F)(F)F)[nH]c(SSc2[nH]c(NC(=O)C(F)(F)F)c(C(=O)OCC)c2C(=O)OCC)c1C(=O)OCC
inactive: dose: 25.0 mg/kg/injection, schedule: Q01DX009 (ip), vehicle: saline with Tween-80 97 % of control | [10] 102 % of control | [5] 97 % of control | [7] 105 % of control | [8] 86 % of control

CCC(C)OC(=O)Nc1cccc(O)c1 (configuration not stated)
inactive: [5] 91 % of control | [6] 89 % of control | dose: 400.0 mg/kg/injection, schedule: Q01DX009 (ip), vehicle: saline with Tween-80 90 % of control

C=CC(=O)Oc1ccc([N+](=O)[O-])cc1
inactive: dose: 12.0 mg/kg/injection, schedule: Q01DX009 (ip), vehicle: saline 100 % of control | dose: 25.0 mg/kg/injection, schedule: Q01DX009 (ip), vehicle: saline 117 % of control | dose: 50.0 mg/kg/injection, schedule: Q01DX009 (ip), vehicle: saline 114 % of control | dose: 200.0 mg/kg/injection, schedule: Q04DX003 (ip), vehicle: saline 100 % of control | dose: 400.0 mg/kg/injection, schedule: Q04DX003 (ip), vehicle: saline 108 % of control

Nc1cc2c3c(cccc3c1)C(=O)N(Cc1ccccc1)C2=O
inactive: dose: 75.0 mg/kg/injection, schedule: Q01DX009 (ip), vehicle: Klucel (hydroxypropylcellulose) (HPC) 89 % of control | dose: 150.0 mg/kg/injection, schedule: Q01DX009 (ip), vehicle: Klucel (hydroxypropylcellulose) (HPC) 92 % of control | dose: 300.0 mg/kg/injection, schedule: Q01DX009 (ip), vehicle: Klucel (hydroxypropylcellulose) (HPC) 97 % of control

Nc1cc(C(F)(F)F)ccc1Cl
inactive: dose: 100.0 mg/kg/injection, schedule: Q04DX003 (ip), vehicle: alcohol 100 % of control | dose: 200.0 mg/kg/injection, schedule: Q04DX003 (ip), vehicle: alcohol 96 % of control | dose: 400.0 mg/kg/injection, schedule: Q04DX003 (ip), vehicle: alcohol 97 % of control

CC(c1ccccc1)N1C(=O)CSC1=S (configuration not stated)
inactive: [10] 96 % of control and 101 % of control | [1] 100 % of control | [5] 99 % of control and 107 % of control | [2] 96 % of control and 98 % of control | [7] 104 % of control | dose: 200.0 mg/kg/injection, schedule: Q01DX001 (ip), vehicle: saline with Tween-80 100 % of control | [6] 96 % of control and 91 % of control | [3] 91 % of control | [8] 102 % of control | dose: 400.0 mg/kg/injection, schedule: Q01DX001 (ip), vehicle: saline with Tween-80 92 % of control | [4] 90 % of control | [9] 90 % of control

O=S(=O)(Cc1ccccc1)C(CCCc1ccccc1)S(=O)(=O)Cc1ccccc1
inactive: dose: 100.0 mg/kg/injection, schedule: Q01DX001 (ip), vehicle: carboxymethylcellulose (CMC) 97 % of control | dose: 200.0 mg/kg/injection, schedule: Q01DX001 (ip), vehicle: carboxymethylcellulose (CMC) 92 % of control | dose: 400.0 mg/kg/injection, schedule: Q01DX001 (ip), vehicle: carboxymethylcellulose (CMC) 91 % of control

CCn1cnc2c(SC(C)C)ncnc21
inactive: dose: 16.0 mg/kg/injection, schedule: Q01DX Z (ip), vehicle: carboxymethylcellulose (CMC) 95 % of control | dose: 31.0 mg/kg/injection, schedule: Q01DX Z (ip), vehicle: carboxymethylcellulose (CMC) 101 % of control | dose: 62.0 mg/kg/injection, schedule: Q01DX Z (ip), vehicle: carboxymethylcellulose (CMC) 107 % of control
